From ChEMBL document CHEMBL1201862, “PubChem BioAssay data set” (2004)
Calls of active or inactive are those of the source.

Key:
[1] = biological target: ATP-dependent molecular chaperone HSP82 (Candida albicans (strain WO-1) (Yeast), UniProt C4YTQ8); assay: steroid-induced GRE reporter decrease in yeast – S. cerevisiae, luminescence, Hsp90 inhibitor project, dose response (AID 2400); type: functional, cell-based;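 note: beta-galactosidase luminescence from glucocorticoid response element reporter as proxy for Hsp90 function; inhibitor potency where signal loss means Hsp90 inhibition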
[2] = Luminescence Cell-Based Dose Retest to Confirm Inhibitors of Cancer Stem Cells. [Related pubchem assays (depositor defined):AID2717, AID2721]; type: functional; settings: Homo sapiens
[3] = fluconazole-exposed Candida albicans growth modulators – fluorescence, retest, confirmation (AID 2467); type: functional, cell-based
[4] = biological target: Serine/threonine-protein phosphatase (Candida dubliniensis (strain CD36 / CBS 7987 / NCPF 3949 / NRRLY-17841) (Yeast), UniProt B9W6M3); assay: blockers of CaCl2-induced CDRE-lacZ signaling – S. cerevisiae, luminescence, secondary, dose response (AID 2388); type: functional, cell-based;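 note: yeast reporter cells carrying a calcineurin-responsive lacZ construct stimulated with calcium chloride; luminescent beta-galactosidase reporter signal in whole cells rather than isolated phosphatase activity; potency for inhibition where a drop in reporter signal means calcineurin blockade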
[5] = NIH-3T3 fibroblast cytotoxicity, dose response, cytotoxicity control, cell-based, fluorescence, Alamar Blue, secondary assay (AID 2327); type: functional;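 note: NIH-3T3 mouse fibroblasts cultured with fluconazole at 8 µg/mL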
Interleukin-8 [6] = biological target: T1, Interleukin-8 (Homo sapiens, UniProt P10145); assay: Dose Response confirmation of uHTS small molecule hits for cystic fibrosis induced NFkb Inhibitors in a PAF-induced IL8 counterscreen.; type: functional; settings: read-out: IC50_Mean
T1 sequence (P10145 whole entry): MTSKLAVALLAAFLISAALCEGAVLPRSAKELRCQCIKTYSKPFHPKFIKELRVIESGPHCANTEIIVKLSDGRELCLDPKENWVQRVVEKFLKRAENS

Interleukin-8 [7] = biological target: T1, Interleukin-8; assay: Dose Response confirmation of uHTS small molecule hits for cystic fibrosis induced NFkb Inhibitors in a TNFa-induced IL8 counterscreen.; type: functional; settings: read-out: IC50_Mean
[8] = nonselective StAR promoter luciferase inhibitors – cell-based, luminescence, luciferase reporter, counter-screen for LRH-1 inverse agonist project, dose response (AID 651969); type: functional
[9] = biological target: Nuclear receptor subfamily 5 group A member 2 (Homo sapiens, UniProt O00482); type: functional, cell-based;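 note: HEK293T cells transfected with LRH-1 and a StAR promoter luciferase reporter; potency for inhibitors that lower LRH-1 driven reporter light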
Steroidogenic factor 1 = Steroidogenic factor 1 (Homo sapiens, UniProt Q13285); assay: Counterscreen for inverse agonists of the liver receptor homolog-1 (LRH-1; NR5A2): Luminescence-based cell-based high throughput dose response assay to identify inverse agonists of the Steroidogenic Factor 1 Nuclear Receptor (SF1; NR5A1).; type: functional
BJ [10] = assay: cells; type: functional, cell-based; settings: Homo sapiens
[11] = biological target: Photoreceptor-specific nuclear receptor (Homo sapiens, UniProt Q9Y5X4); type: functional, cell-based;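 note: CHO-S cells with Gal4-NCOR and VP16-NR2E3 two-hybrid luciferase reporter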
[12] = HEK-293T viability loss after treatment – luminescence, T-cell screen hits, cytotoxicity control for TCR NF-kB inhibitor project, dose response (AID 489026); type: functional, cell-based;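 note: cells exposed to compound about 14 hours before the viability readout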
BJ [13] = assay: BJ-TERT-LT-ST fibroblast viability loss – cell-based, RAS-independent, luminescence, dose response (AID 1935); type: functional; settings: Homo sapiens;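 note: BJ fibroblasts immortalized with TERT plus LT and ST oncogenes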
BJ [14] = assay: growth inhibition of engineered Ras-driven BJ cells – cell-based, alamar blue fluorescence, cherrypicked samples, dose response (AID 2631); type: functional; settings: Homo sapiens;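 note: confirmatory dose-response assay in RAS-dependent BJ fibroblasts engineered with TERT, LT and ST, with cytotoxicity read by fluorescence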
[15] = DRD fibroblast viability loss – cell-based, non-viral oncogenic, luminescence, dose response (AID 1934); type: functional; settings: Homo sapiens
BJ [16] = assay: BJ-TERT fibroblast viability loss – cell-based, RAS-independent, luminescence, dose response (AID 1933); type: functional; settings: Homo sapiens
[17] = biological target: T2, Apoptotic protease-activating factor 1 (Homo sapiens, UniProt O14727); assay: SAR analysis of small molecule inhibitors of Apaf-1 in a Fluorescent assay.; type: functional; settings: read-out: IC50_Mean
T2 sequence (O14727 whole entry): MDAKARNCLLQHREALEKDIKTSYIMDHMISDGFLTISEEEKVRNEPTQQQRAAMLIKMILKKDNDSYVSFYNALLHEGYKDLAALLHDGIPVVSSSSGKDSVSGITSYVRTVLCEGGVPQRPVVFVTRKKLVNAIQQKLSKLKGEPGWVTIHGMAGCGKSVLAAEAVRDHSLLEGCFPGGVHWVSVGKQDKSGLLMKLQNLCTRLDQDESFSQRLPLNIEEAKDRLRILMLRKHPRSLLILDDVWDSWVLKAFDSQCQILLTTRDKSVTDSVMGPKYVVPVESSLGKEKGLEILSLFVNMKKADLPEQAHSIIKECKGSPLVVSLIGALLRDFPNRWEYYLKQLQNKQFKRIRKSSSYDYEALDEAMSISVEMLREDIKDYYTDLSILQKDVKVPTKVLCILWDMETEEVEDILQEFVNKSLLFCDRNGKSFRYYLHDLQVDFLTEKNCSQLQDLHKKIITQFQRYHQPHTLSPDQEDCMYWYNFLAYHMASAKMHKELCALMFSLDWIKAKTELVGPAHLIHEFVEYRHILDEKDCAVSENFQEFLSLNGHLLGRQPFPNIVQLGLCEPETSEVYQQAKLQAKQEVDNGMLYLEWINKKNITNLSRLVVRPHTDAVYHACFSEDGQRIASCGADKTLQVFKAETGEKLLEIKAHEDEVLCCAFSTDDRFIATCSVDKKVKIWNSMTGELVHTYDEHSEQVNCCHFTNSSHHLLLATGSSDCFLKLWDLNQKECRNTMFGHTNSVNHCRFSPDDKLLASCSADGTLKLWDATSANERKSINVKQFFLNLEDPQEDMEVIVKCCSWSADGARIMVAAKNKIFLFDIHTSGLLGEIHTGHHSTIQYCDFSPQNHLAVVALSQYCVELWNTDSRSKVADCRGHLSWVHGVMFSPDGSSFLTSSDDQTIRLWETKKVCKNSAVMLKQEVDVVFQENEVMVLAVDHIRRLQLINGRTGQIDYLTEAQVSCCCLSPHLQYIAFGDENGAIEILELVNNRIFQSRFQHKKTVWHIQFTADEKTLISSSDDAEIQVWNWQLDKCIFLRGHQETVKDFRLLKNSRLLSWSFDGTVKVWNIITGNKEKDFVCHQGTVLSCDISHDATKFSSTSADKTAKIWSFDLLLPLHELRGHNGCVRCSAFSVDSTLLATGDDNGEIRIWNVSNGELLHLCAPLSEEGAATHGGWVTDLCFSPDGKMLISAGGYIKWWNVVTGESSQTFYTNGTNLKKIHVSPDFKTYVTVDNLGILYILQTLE

Prothrombin = Prothrombin (Bos taurus, UniProt P00735); assay: thrombin protease inhibitors – biochemical, fluorescence polarization, uHTS hits, dose response (AID 602369); type: functional
[18] = biological target: 72 kDa type IV collagenase (Homo sapiens, UniProt P08253); assay: Dose Response validation of uHTS RPN11 inhibitor hits using a MMP-2 Fluorescence assay.; type: functional
Chain of 72 kDa type IV collagenase (P08253 whole entry): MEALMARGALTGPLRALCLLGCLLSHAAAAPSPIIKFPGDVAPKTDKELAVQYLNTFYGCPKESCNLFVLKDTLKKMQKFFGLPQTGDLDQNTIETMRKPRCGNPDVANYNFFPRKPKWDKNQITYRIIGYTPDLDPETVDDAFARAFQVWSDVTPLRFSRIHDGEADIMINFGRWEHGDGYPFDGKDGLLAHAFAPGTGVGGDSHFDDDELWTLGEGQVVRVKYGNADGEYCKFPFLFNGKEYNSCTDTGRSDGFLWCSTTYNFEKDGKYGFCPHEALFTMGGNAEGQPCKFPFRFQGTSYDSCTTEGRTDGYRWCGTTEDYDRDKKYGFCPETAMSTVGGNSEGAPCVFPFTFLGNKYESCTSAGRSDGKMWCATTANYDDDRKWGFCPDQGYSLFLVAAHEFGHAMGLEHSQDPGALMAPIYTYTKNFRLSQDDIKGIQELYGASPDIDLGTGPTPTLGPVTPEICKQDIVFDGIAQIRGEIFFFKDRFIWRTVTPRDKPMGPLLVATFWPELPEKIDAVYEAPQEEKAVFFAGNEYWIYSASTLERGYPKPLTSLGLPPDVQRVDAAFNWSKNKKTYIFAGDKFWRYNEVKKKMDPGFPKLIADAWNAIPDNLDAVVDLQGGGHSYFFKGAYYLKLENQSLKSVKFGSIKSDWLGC

Large T antigen = Large T antigen (Simian virus 40, UniProt P03070); type: functional, Betapolyomavirus macacae;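 note: Confirmatory-stage PubChem screen for compounds that inhibit SV40 T antigen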
[19] = biological target: 26S proteasome non-ATPase regulatory subunit 14 (Homo sapiens, UniProt O00487); assay: inhibition of proteasome subunit RPN11 – biochemical, fluorescence polarization, uHTS hits, confirmation (AID 602368); type: functional
Chain of 26S proteasome non-ATPase regulatory subunit 14 (O00487 whole entry): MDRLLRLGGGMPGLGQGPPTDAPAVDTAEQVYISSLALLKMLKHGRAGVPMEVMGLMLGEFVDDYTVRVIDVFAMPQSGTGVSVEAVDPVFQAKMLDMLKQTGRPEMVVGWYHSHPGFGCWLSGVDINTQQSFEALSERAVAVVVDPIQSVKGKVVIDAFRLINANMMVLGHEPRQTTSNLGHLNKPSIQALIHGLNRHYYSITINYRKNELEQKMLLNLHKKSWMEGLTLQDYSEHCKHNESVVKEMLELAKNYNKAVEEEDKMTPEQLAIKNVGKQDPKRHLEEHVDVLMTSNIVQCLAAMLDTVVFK

[20] = biological target: T3, ATP-dependent translocase ABCB1 (Homo sapiens, UniProt P08183); assay: inhibition of BCRP-mediated JC-1 efflux – Ig-MXP3 cells, flow cytometry, set 2, dose response (AID 504566); type: functional; settings: read-out: EC50_MICROM_;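 note: flow cytometry median green fluorescence of retained JC-1 dye; potency of efflux pump inhibition measured as rising substrate retention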
T3 sequence (P08183 whole entry): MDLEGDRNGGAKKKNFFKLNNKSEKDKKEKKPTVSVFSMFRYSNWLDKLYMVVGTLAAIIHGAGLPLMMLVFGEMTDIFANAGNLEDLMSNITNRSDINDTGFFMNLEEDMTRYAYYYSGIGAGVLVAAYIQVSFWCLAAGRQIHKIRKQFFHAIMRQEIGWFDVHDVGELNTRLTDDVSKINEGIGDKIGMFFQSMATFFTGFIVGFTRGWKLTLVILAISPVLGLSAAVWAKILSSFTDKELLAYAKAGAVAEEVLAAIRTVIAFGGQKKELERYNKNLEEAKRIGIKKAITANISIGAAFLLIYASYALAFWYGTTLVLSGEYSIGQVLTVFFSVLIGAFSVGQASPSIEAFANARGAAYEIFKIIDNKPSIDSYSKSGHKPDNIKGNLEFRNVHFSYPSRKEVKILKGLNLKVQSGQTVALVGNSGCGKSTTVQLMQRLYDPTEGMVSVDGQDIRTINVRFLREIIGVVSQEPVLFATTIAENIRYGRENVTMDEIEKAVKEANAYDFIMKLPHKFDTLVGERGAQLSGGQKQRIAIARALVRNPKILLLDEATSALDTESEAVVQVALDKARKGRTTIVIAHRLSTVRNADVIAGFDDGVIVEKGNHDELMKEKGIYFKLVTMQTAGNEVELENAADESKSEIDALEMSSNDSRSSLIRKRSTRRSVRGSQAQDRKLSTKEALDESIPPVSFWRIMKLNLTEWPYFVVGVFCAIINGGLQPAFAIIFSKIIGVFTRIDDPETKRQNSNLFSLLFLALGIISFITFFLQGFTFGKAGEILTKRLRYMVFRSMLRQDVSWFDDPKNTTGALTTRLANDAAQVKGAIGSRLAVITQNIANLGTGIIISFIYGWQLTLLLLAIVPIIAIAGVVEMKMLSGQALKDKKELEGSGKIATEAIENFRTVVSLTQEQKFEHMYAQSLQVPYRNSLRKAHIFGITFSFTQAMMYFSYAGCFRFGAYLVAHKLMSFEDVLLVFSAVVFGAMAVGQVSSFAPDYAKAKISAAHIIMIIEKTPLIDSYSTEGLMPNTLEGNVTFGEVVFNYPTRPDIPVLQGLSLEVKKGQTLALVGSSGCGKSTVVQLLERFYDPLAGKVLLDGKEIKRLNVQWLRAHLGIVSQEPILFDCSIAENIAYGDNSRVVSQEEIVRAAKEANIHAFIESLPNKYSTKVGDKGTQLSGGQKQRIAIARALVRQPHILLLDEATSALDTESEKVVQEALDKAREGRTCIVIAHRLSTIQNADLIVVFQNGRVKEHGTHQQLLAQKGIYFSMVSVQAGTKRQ

[21] = biological target: T3, ATP-dependent translocase ABCB1; assay: P-gp JC-1 efflux blockade concentration-response – Jurkat-DNR cells, flow cytometry, set 2, dose response (AID 504569); type: functional; settings: read-out: EC50_MICROM_;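 note: potency of pump inhibitors that raise cellular JC-1 green fluorescence up to the nicardipine level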
Streptococcus = assay: GAS UMAA2166 growth inhibition – luminescence, BacTiterGlo, counter-screen for streptokinase expression inhibitor project, dose response (AID 1915); type: functional, organism-based;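 note: potency for reduction of bacterial viability or growth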
Galanin receptor type 3 = biological target: T4, Galanin receptor type 3 (Homo sapiens, UniProt O60755); assay: Fluorescence-based cell-based primary high throughput dose response assay to identify antagonists of the Galanin Receptor 3 (GalR3).; type: functional
T4 sequence (O60755 whole entry): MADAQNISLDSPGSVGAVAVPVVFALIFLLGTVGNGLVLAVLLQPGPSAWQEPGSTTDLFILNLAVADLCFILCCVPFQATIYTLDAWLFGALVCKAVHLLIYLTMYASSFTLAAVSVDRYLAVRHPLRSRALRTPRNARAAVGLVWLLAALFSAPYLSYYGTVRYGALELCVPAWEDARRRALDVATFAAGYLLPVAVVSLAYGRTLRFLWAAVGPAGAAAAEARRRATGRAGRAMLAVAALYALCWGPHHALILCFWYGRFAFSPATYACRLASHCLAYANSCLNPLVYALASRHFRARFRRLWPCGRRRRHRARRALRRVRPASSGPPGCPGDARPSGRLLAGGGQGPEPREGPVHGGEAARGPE

Fatty acid synthase [22] = biological target: T5, Fatty acid synthase (Homo sapiens, UniProt P49327); assay: inhibition of human FAS-TE enzyme activity – biochemical, endpoint fluorescence intensity, uHTS hits, dose response (AID 624327); type: functional;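 note: fluorescence from hydrolysis of an O-methyl fluorescein acyl ester substrate by the enzyme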
T5 sequence (P49327 whole entry): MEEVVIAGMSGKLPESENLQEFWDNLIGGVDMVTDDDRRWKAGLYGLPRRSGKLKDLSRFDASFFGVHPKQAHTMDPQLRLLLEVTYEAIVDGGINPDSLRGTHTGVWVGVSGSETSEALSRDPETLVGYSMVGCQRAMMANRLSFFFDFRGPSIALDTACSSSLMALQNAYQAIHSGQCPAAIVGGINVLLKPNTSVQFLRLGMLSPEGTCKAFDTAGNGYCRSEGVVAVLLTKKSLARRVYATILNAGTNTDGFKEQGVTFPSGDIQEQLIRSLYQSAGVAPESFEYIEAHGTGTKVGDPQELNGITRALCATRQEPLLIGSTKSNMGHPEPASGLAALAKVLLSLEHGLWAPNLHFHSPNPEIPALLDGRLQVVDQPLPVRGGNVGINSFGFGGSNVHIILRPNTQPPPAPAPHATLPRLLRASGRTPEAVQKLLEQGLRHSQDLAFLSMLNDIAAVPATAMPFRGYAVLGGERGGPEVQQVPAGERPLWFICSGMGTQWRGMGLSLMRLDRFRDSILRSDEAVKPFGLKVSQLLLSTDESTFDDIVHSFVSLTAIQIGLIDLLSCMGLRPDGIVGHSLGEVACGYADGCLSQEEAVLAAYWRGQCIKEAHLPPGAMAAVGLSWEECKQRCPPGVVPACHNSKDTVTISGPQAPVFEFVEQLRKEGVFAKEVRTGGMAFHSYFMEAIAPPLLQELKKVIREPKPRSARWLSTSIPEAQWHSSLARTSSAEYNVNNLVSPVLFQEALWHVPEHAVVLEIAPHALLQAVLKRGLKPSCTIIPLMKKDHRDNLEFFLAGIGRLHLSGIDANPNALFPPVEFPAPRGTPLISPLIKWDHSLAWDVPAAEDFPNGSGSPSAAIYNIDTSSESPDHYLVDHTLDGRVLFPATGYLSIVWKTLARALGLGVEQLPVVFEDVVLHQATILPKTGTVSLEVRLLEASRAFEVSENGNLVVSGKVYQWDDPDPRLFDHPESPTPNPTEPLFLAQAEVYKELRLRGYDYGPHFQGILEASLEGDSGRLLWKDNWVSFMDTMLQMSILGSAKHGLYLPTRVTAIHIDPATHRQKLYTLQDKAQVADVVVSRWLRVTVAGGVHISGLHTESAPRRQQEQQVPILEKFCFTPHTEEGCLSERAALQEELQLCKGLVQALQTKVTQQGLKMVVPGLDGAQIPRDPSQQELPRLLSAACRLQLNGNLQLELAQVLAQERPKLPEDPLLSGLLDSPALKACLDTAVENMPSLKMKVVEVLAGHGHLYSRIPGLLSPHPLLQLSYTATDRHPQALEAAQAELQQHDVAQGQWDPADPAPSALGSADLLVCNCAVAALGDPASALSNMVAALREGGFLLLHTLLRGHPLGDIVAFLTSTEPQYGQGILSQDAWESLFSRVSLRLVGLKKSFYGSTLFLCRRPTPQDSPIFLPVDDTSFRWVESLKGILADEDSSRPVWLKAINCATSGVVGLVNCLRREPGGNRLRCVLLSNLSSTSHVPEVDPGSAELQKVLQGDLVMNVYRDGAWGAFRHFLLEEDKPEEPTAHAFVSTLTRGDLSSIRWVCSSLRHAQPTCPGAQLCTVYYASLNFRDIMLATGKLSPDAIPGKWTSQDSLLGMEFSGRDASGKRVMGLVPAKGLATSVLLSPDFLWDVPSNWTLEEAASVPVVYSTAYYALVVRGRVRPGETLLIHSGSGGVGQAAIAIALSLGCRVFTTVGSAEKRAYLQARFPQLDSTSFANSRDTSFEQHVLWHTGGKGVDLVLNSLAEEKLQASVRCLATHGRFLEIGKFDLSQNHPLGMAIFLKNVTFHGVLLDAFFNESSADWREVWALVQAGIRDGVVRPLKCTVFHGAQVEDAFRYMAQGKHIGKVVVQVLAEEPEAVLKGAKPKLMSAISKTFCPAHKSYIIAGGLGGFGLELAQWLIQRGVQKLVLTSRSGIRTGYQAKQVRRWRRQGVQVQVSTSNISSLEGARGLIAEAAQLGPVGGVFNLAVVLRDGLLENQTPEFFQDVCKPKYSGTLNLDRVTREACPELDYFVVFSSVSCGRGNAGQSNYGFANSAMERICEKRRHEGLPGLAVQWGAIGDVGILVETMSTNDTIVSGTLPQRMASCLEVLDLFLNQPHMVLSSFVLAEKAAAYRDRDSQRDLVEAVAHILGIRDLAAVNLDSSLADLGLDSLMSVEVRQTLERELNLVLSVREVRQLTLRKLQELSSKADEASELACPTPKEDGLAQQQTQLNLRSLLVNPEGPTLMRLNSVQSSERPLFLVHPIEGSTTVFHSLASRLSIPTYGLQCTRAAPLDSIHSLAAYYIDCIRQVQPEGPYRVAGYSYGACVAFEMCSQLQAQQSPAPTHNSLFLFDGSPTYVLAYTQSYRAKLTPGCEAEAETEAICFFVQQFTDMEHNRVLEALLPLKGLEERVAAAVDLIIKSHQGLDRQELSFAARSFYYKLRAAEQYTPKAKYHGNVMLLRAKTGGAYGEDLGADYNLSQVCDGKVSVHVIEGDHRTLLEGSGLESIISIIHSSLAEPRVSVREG

cells = type: functional, cell-based; settings: HEK-CNG
Fatty acid synthase [23] = biological target: T5, Fatty acid synthase; assay: inhibition of human FAS-TE enzyme activity – biochemical, kinetic fluorescence intensity, dose response (AID 624326); type: functional;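 note: rate of fluorescence rise from hydrolysis of a fluorogenic O-methyl fluorescein ester substrate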
[24] = tested on: Streptococcus sp. 'group A'; assay: Streptococcus pyogenes SK(-)GAS viability under kanamycin – luminescence, BacTiterGlo, confirmation, counter-screen for streptokinase expression inhibitor project, dose response (AID 1900); type: functional, organism-based
[25] = biological target: T6, Small ubiquitin-related modifier 1 (Homo sapiens, UniProt P63165); assay: SUMO1 protein-protein binding blockers, potency – biochemical, FRET, dose response (AID 624383); type: functional; settings: read-out: IC50_Mean
T6 sequence (P63165 whole entry): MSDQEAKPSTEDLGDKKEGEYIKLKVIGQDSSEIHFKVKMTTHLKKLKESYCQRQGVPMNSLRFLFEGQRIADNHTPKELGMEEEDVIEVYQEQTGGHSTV

[26] = biological target: T7, Ubiquitin-conjugating enzyme E2 N (Homo sapiens, UniProt P61088); type: functional
T7 sequence (P61088 whole entry): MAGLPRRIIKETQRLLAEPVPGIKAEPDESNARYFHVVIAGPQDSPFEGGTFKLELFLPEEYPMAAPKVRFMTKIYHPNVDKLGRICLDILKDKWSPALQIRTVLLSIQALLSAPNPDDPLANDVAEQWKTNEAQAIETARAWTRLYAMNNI

Bcl-2-related protein A1 = biological target: T8, Bcl-2-related protein A1 (Mus musculus, UniProt Q07440); type: functional;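 note: confirmatory dose–response counterscreen on Bfl-1, used to check hits from a UBC13 polyubiquitin inhibitor campaign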
T8 sequence (Q07440 whole entry): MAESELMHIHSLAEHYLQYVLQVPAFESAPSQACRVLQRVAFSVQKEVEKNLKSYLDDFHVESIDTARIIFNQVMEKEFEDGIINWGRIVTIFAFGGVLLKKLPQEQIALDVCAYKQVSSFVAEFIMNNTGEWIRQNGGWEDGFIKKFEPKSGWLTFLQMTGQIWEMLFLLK

[27] = biological target: T7, Ubiquitin-conjugating enzyme E2 N; type: functional; remark: listed apart in the source
[28] = biological target: T6, Small ubiquitin-related modifier 1; assay: SUMO1 protein interaction blockers, potency – biochemical, fluorescence polarization, uHTS hits, dose response (AID 624382); type: functional; settings: read-out: IC50_Mean
[29] = biological target: Adenosylmethionine-8-amino-7-oxononanoate aminotransferase (Mycobacterium tuberculosis, UniProt P9WQ81); assay: Mycobacterium tuberculosis BioA enzyme inhibitor Measured in Biochemical System Using Plate Reader - 2163-02_Inhibitor_Dose_CherryPick_Activity.; type: functional, Mycobacterium tuberculosis UT205

CC/C(=N/NC(=O)c1ccccc1O)c1c(C)nn(-c2ccccc2)c1O
EC50 [1]: > 150 µM (inactive) | AC50 [2]: 3.29 µM (active) | EC50 [3]: 0.114 µM (active) | EC50 [4]: > 180 µM (inactive) | EC50 [5]: 39 µM (active)

CCN1CCN(Cc2ccc(NC(=O)c3ccc(C)c(NC(=O)N4CCNC4=O)c3)cc2C(F)(F)F)CC1
IC50 (Interleukin-8 [6]): 56.5 µM (inactive) | IC50 (Interleukin-8 [7]): > 79 µM (inactive)

O=C(CSc1n[nH]c(-c2ccccc2)n1)Nc1ccc(F)cc1F
IC50 [8]: 35.9 µM (inactive) | IC50 [9]: 3.99 µM (active) | IC50 (Steroidogenic factor 1): 3.68 µM (active)

Cc1cccc(NS(=O)(=O)c2ccc(-c3cnc(C4CC4)o3)cc2)c1C
EC50 (BJ [10]): 2.51 µM (active) | IC50 [11]: 6.35 µM (active) | IC50 [12]: 67.5 µM (inactive) | EC50 (BJ [13]): 2.88 µM (inconclusive) | EC50 (BJ [14]): < 0.104 µM (active) | EC50 [15]: 2.74 µM (inconclusive) | EC50 (BJ [16]): 2.67 µM (active)

COc1ccc(N2C(=O)CC3(CC(c4ccc(F)cc4)=NO3)C2=O)cc1 (stereo not given)
IC50 [17]: 58.3 µM (active)

Cc1cc(C(=O)c2cccs2)c(N)s1
IC50 (Prothrombin): 28.2 µM (active) | IC50 [18]: 32.7 µM (active) | IC50 (Large T antigen): 51.8 µM (active) | IC50 [19]: 20.5 µM (active)

O=C(c1ccco1)N1CCN(c2cc(Cc3ccccc3)nc3cc(-c4cccc(Cl)c4)nn23)CC1
EC50 [20]: 0.8 µM (active) | EC50 [21]: 4.21 µM (active)

COc1cc([N+](=O)[O-])cc(/C=N/NC(=O)c2cncc(Br)c2)c1O
EC50 (Streptococcus): 1.02 µM (active) | IC50 (Galanin receptor type 3): > 9.97 µM (active) | IC50 (Fatty acid synthase [22]): 20 µM (active) | EC50 (cells): > 29.9 µM (inactive) | IC50 (Prothrombin): 39.1 µM (active) | IC50 [18]: 12.5 µM (active) | IC50 (Fatty acid synthase [23]): 10.2 µM (active) | EC50 [24]: 1.85 µM (active) | IC50 [19]: 49.5 µM (active)

CCN(CC)CCOC(=O)c1ccc(N/C=C(/C#N)c2nc(-c3ccc(OC)cc3)cs2)cc1
IC50 [25]: 5.97 µM (active) | IC50 [26]: 4.3 µM (active) | IC50 (Bcl-2-related protein A1): 2.99 µM (active) | IC50 [27]: 4.88 µM (active) | IC50 [17]: 9.94 µM (active) | IC50 [28]: > 66.6 µM (inactive)

O=C(N[C@@H]1CC[C@H](CCn2cc(-c3cccnc3)nn2)O[C@@H]1CO)c1ccccc1F
AC50 [29]: 6.17 µM (active)
